Reference: patent US9567384B2, “Phosphorylation on the Thr-248 and/or Thr-250 residues of transcription factor E2F4 as a therapeutic target in pathological processes associated with somatic polyploidy” (CONSEJO SUPERIOR DE INVESTIGACIONES CIENTIFICAS (CSIC), priority 2011, dated 2017)

What was measured:
[1] = test system: cMyc gene promoter; assay: Luciferase assay, cMyc gene promoter reporter in chick embryo retinal cell neurogenic cultures E6; assay type: cell-based
Experimental: (§1) These cells respond to NGF by inducing cell cycle reactivation that leads to somatic tetraploidy (endoreduplication) (Morillo et al., 2010). A. Western blot with anti-active p38^MAPK (P-p38^MAPK) and anti-p38^MAPK in nuclear extracts of the mentioned neurogenic cultures treated for the indicated time with 100 ng/ml NGF. The normalized ratios between P-p38^MAPK and p38^MAPK levels are indicated at the bottom. B. Immunohistochemical staining with anti-active p38^MAPK antibodies (P-p38^MAPK) in the mentioned neurogenic cultures treated with 100 ng/ml NGF for 20 minutes. The nuclei were labeled with bisbenzimide (Bisb.). […] C. Luciferase assay in extracts of chick embryo retinal cell neurogenic cultures E6 transfected with a plasmid expressing luciferase under the control of cMyc gene promoter, known for its response to E2F during G1/S transition, and another plasmid with the constitutive expression of β-galactosidase. The luciferase/β-galactosidase ratio values are depicted as “luciferase activity”. […] This effect is blocked with selective p38^MAPK inhibitor SB203580 (used at 5 μM). D. Incorporation of BrdU to indicate entry into S phase in chick embryo retinal cell neurogenic cultures E6.

[2] = test system: E2F4; assay: Western blot with anti-phosphoThr antibodies in extracts immunoprecipitated with anti-E2F4 antibodies; assay type: cell-based, chick; conditions: 100 ng/ml NGF
[3] = test system: chick embryo retinal cell neurogenic cultures E6; assay: Incorporation of BrdU (entry into S phase) in chick embryo retinal cell neurogenic cultures E6; assay type: cell-based
Experimental: as §1
A. Luciferase activity analyzed as described in FIG. 2C. […] Based on the results shown in panels A and B, it is deduced that p38^MAPK acts exclusively through Thr261/Thr263 residues. C. Luciferase activity analyzed as described in FIG. 2C.

[4] = test system: p38^MAPK; assay: Immunohistochemical staining with anti-active p38MAPK antibodies in neurogenic cultures; assay type: cell-based, chick; conditions: 100 ng/ml NGF for 20 minutes
Experimental: as §1

[5] = expression of E2F4-ND, 100 ng/ml NGF

Compound: C[S+]([O-])c1ccc(-c2nc(-c3ccncc3)c(-c3ccc(F)cc3)[nH]2)cc1 (stereo not drawn) [SB203580, reference compound]
- effect on NGF-induced cMyc promoter activation (luciferase activity) ([1]; 100 ng/ml NGF, SB203580 used at 5 μM): blocked
- effect on NGF-promoted phosphorylation on threonine residues of E2F4 ([2]; SB203580 used at 5 μM): inhibits such phosphorylation
- effect on NGF-induced increase in the proportion of cells in S phase (BrdU) ([3]; 100 ng/ml NGF, inhibitor used at 5 μM): blocked

Compound: E2F4-CA: constitutively active form of chicken E2F4 characterized by Thr261Glu/Thr263Glu substitutions
- cMyc promoter activity (luciferase activity) ([1]; expression of E2F4-CA in the presence of SB203580 5 μM): can be observed even in the presence
- cMyc promoter activity (luciferase activity) ([1]; expression of E2F4-CA, transfected cells): induces cMyc promoter activity
- incorporation of BrdU ([3]; cells transfected with E2F4-CA): increases significantly
- incorporation of BrdU ([3]; cells transfected with E2F4-CA in the presence of SB203580 5 μM): can be observed even in the presence
- mimicking the effect of NGF on retinal neurons (cell cycle reactivation) ([3]; summary of FIG. 4A, FIG. 4B (luciferase and BrdU)): capable of mimicking the effect of NGF

Compound: E2F4-ND: negative dominant form of chicken E2F4 characterized by Thr261Ala/Thr263Ala substitutions, preventing phosphorylation by p38MAPK
- effect of NGF on cMyc promoter activity (luciferase activity) [1, 5]: prevents the effect
- effect of NGF on the incorporation of BrdU [3, 5]: prevents the effect
- effect of NGF on the cell cycle in neurogenic retinal cultures ([3]; summary of FIG. 4C, FIG. 4D (luciferase and BrdU)): capable of inhibiting the effect of NGF

Compound: nerve growth factor [NGF]
- active p38MAPK (P-p38MAPK) signal in the nucleus [4]: signal increase
- luciferase activity (luciferase/β-galactosidase ratio), cMyc promoter ([1]; 100 ng/ml NGF): entails cMyc promoter activation
- phosphorylation on threonine residues of E2F4 [2]: increase in phosphorylation on threonine residues
- incorporation of BrdU, proportion of cells in S phase ([3]; 100 ng/ml NGF): an increase in the proportion of cells in S phase
